Assay in all cases: growth of human tumour cells (NCI), 48 h
Experiment [1] relates to SR.
Experiment [2] deals with OVCAR-4.
For experiment [3], the system named is MDA-MB-231.
The test system of experiment [4] is SF-295.
In experiment [5] the test system is SW-620.
Experiment [6] deals with UACC-62.
The test system of experiment [7] is COLO 205.
Experiment [8] concerns HCT-15.
Experiment [9] concerns MCF7.
Experiment [10] relates to HOP-62.
Experiment [11] has as its system U-251.
In experiment [12] the test system is RXF 393.
Experiment [13] relates to SNB-75.
In experiment [14] the test system is CCRF-CEM.
The test system of experiment [15] is HCC 2998.
The test system of experiment [16] is SF-268.
Experiment [17] relates to NCI-H460.
In experiment [18] the test system is SK-MEL-5.
The subject of experiment [19] is MDA-N.

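Growth conditions: 96-well plates. Treatment: test compound, 48 hours, 5 concentrations. Analysis: linear interpolation between bracketing concentrations; unreached endpoints set to highest concentration. GI50 = concentration required for 50% inhibition of growth.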 Calls of active or inactive are those of the source. Rule as the data show it: active = GI50 up to about 1.1 µM and inactive = higher. Where only a bound is given, the exact number is not on record here.

For `CC(C)(C)[C@@H]1NC(=O)CN1C(=O)OCc1ccccc1`, the GI50 in [1], in experiment [2], in experiment [3], in experiment [4], in experiment [5] and in [6] was > 100 µM (inactive) in each case. In addition, the GI50 in experiment [7] was > 100 µM (inactive); in [8], above 100 µM; in experiment [9] it was > 100 µM (inactive); in experiment [10], > 100 µM (inactive); in [11], > 100 µM (inactive); in [12] it was > 100 µM (inactive). Besides, the GI50 in experiment [13], in experiment [14], in experiment [15], in experiment [16], in experiment [17] and in experiment [18] was > 100 µM (inactive) each time.

For `C=CCCC(=O)N1CCC(C(=O)OCC)C1=O` (configuration not stated), the GI50 in [2], in experiment [3], in experiment [4], in experiment [5], in [6] and in [7] was > 100 µM (inactive) throughout. Further, the GI50 in [8] is above 100 µM; in experiment [10] it was > 100 µM (inactive); in [11], > 100 µM (inactive); in experiment [12], > 100 µM (inactive); in experiment [13] it was > 100 µM (inactive); in experiment [14], > 100 µM (inactive). Moreover, the GI50 in experiment [16] and in experiment [18] was > 100 µM (inactive) throughout.

Consider `Cn1c2ccccc2n2c3ccccc3c3nnc(N)c-3c12`, for which the GI50 was 26.7 µM (inactive) in experiment [1]; 41 µM (inactive) in [2]; 55 µM (inactive) in experiment [3]; 5.58 µM (inactive) in [4]; 57.8 µM (inactive) in [5]; 73.6 µM (inactive) in [6]. For the same compound, the GI50 was 32.4 µM (inactive) in [7]; above 100 µM in experiment [8]; 19.2 µM (inactive) in experiment [9]; 9.2 µM (inactive) in experiment [10]; 0.673 µM (active) in experiment [11]; 22.7 µM (inactive) in [12]. Also, the GI50 is 1.95 µM (inactive) in experiment [13]; 37.3 µM (inactive) in [14]; 41.2 µM (inactive) in experiment [15]; 0.589 µM (active) in [16]; > 60.4 µM (inactive) in experiment [17]; 28.9 µM (inactive) in experiment [18].

`CC(C)(C)OC(=O)N1N=CCC1c1ccccc1` (configuration not stated): the GI50 in experiment [1] was > 100 µM (inactive); in experiment [4] it was > 100 µM (inactive); in experiment [5] it was > 100 µM (inactive); in [6] it was > 100 µM (inactive); in [7] it was > 100 µM (inactive); in experiment [8], above 100 µM. Besides, the GI50 in [9] is > 100 µM (inactive); in experiment [10], > 100 µM (inactive); in experiment [12], > 100 µM (inactive); in experiment [13], > 100 µM (inactive); in experiment [14], 56.2 µM (inactive); in experiment [15] it was > 100 µM (inactive). Also, the GI50 in experiment [16], in experiment [17] and in [18] was > 100 µM (inactive) throughout.

For the compound `COc1cc(/C=N/NC(=O)c2c(Cl)c(Cl)c(Cl)c(Cl)c2-c2nc3ccccc3[nH]2)ccc1O`, the GI50 is 24.1 µM (inactive) in [4]; 34.4 µM (inactive) in experiment [5]; 15.8 µM (inactive) in experiment [6]; 22.3 µM (inactive) in experiment [7]; 22 µM in [8]; 16.9 µM (inactive) in [9]. Also, the GI50 in experiment [10] is 21.6 µM (inactive); in experiment [19] it was 24 µM (inactive); in experiment [12], 20.2 µM (inactive); in [13], 22.9 µM (inactive); in experiment [14], 21.9 µM (inactive); in experiment [15], 17.2 µM (inactive). Also, the GI50 in [16] is 32.5 µM (inactive); in [17], 19.1 µM (inactive); in experiment [18], 14.9 µM (inactive).

`O=C1CCSC(=S)N1c1ccc(Br)c(Cl)c1`: the GI50 was 32 µM (inactive) in experiment [1]; 22.2 µM (inactive) in [2]; 29 µM (inactive) in experiment [3]; 32.7 µM (inactive) in experiment [4]; 28.1 µM (inactive) in experiment [5]; 23.6 µM (inactive) in [6]. Also, the GI50 in experiment [7] was 20.2 µM (inactive); in experiment [8] it was 20.4 µM; in experiment [9], 17.9 µM (inactive); in experiment [10], 31.9 µM (inactive); in experiment [11], 27.1 µM (inactive); in [12], 20.1 µM (inactive). Moreover, the GI50 in experiment [13] is 25.5 µM (inactive); in experiment [14], 60.5 µM (inactive); in [16], 18.5 µM (inactive); in [17], 21.8 µM (inactive); in experiment [18] it was 18.4 µM (inactive).

Regarding `CC(C)(C)OC(=O)NCC(CNC(=O)OC(C)(C)C)C(N)=O`, the GI50 in experiment [1], in experiment [2], in [3], in experiment [4], in experiment [5] and in [6] was > 100 µM (inactive) throughout. The GI50 is > 100 µM (inactive) in experiment [7]; above 100 µM in experiment [8]; > 100 µM (inactive) in experiment [9]; > 100 µM (inactive) in experiment [10]; > 100 µM (inactive) in experiment [11]; > 100 µM (inactive) in experiment [12]. The GI50 in experiment [14], in experiment [15], in experiment [16], in experiment [17] and in experiment [18] was > 100 µM (inactive) each time.

As to `Nc1ncnc2c1nc(Cl)n2C1OC2COP(=O)(O)OC2C1O` (configuration not stated), the GI50 in [1] was 3.55 µM (inactive); in experiment [2], 24.2 µM (inactive); in experiment [4] it was > 35.4 µM (inactive); in experiment [5], 3.47 µM (inactive); in experiment [6], 10.4 µM (inactive); in experiment [7] it was 5.55 µM (inactive). Also, the GI50 in [8] was 3.76 µM; in experiment [9] it was 3.49 µM (inactive); in [11] it was 50.6 µM (inactive); in experiment [19], 6.43 µM (inactive); in [12], 3.15 µM (inactive); in experiment [13] it was 11.3 µM (inactive). In addition, the GI50 in [14] was 1.29 µM (inactive); in [15] it was 38.9 µM (inactive); in experiment [16], > 51.8 µM (inactive); in [17], 4 µM (inactive); in experiment [18], > 47.4 µM (inactive).

On to `COc1cc(OC)c(-c2ccc(OCc3ccccc3)c3c(OC)cc(C)cc23)c2c1C(C)=N[C@H](C)C2`, for which the GI50 in experiment [1] was 1.16 µM (inactive); in experiment [2], 2.14 µM (inactive); in experiment [3] it was 2.33 µM (inactive); in [4], 2.01 µM (inactive); in experiment [5], 2.45 µM (inactive); in experiment [6], 2.1 µM (inactive). Besides, the GI50 in experiment [7] was 2.28 µM (inactive); in experiment [8], 2.14 µM; in experiment [10], 2.26 µM (inactive); in experiment [11], 2.08 µM (inactive); in experiment [19], 2.15 µM (inactive); in experiment [12] it was 2.77 µM (inactive). For the same compound, the GI50 in [13] was 2.29 µM (inactive); in experiment [14] it was 1.99 µM (inactive); in [16], 1.78 µM (inactive); in [17] it was 2.1 µM (inactive); in experiment [18], 2.27 µM (inactive).

On to `COc1ccc(C(=O)Nc2ccc(O)c(=O)cc2)cc1`, for which the GI50 is 17.5 µM (inactive) in experiment [1]; 42.3 µM (inactive) in experiment [3]; 37.8 µM (inactive) in experiment [4]; 30.7 µM (inactive) in experiment [5]; 32.5 µM (inactive) in [6]; 24.2 µM (inactive) in experiment [7]. Besides, the GI50 in experiment [8] was 26.9 µM; in experiment [9] it was 21.5 µM (inactive); in experiment [10], 80.9 µM (inactive); in experiment [11], 38.7 µM (inactive); in experiment [12], 13.6 µM (inactive); in experiment [14] it was 24 µM (inactive). The GI50 in experiment [15] is 39.9 µM (inactive); in [16], 21 µM (inactive); in experiment [17] it was 15.3 µM (inactive); in [18], 41.6 µM (inactive).

As to `O=C1c2ccccc2/N=C(/c2cc3c(cc2Cl)Sc2nccn2S3(=O)=O)OS(=O)(=O)N1c1ccccc1`, the GI50 was 10.8 µM (inactive) in [1]; 21.1 µM (inactive) in [2]; 22.7 µM (inactive) in experiment [3]; 16.9 µM (inactive) in experiment [4]; 24.9 µM (inactive) in [5]; 20.5 µM (inactive) in experiment [6]. For the same compound, the GI50 in experiment [7] was 19.9 µM (inactive); in experiment [8] it was 20.2 µM; in [9] it was 24.6 µM (inactive); in experiment [10] it was 21.7 µM (inactive); in [11] it was 29.2 µM (inactive); in experiment [12] it was 20.8 µM (inactive). The GI50 in [13] was 7.4 µM (inactive); in [14], 4.65 µM (inactive); in experiment [15], 8.36 µM (inactive); in [16], 37.3 µM (inactive); in [17], 29.8 µM (inactive).

Turning to `CC(C)(C)OC(=O)N1CC(O)O[C@H](c2ccccc2)[C@@H]1c1ccccc1` (some centres not stated), the GI50 in experiment [1] was 16.7 µM (inactive); in experiment [2] it was 18.5 µM (inactive); in experiment [3] it was 28.2 µM (inactive); in [4] it was 16.4 µM (inactive); in experiment [5] it was 16.6 µM (inactive); in experiment [6] it was 14.3 µM (inactive). The GI50 in [7] was 31 µM (inactive); in experiment [8] it was 18 µM; in experiment [10], 16.3 µM (inactive); in [11], 14.4 µM (inactive); in [19], 28.2 µM (inactive); in experiment [12], 15.1 µM (inactive). For the same compound, the GI50 in experiment [13] was 24.8 µM (inactive); in [14], 21.6 µM (inactive); in experiment [16], 25.5 µM (inactive); in [18], 27.9 µM (inactive).

The record behind these values is ChEMBL document CHEMBL1201862, “PubChem BioAssay data set” (2004).
